We go through 22 molecules from patent publication US20110224208A1, “NOVEL INHIBITORS OF FLAVIVIRUS REPLICATION” (KATHOLIEKE UNIVERSITEIT LEUVEN, K.U. LEUVEN R&D, priority 2008, published 2011).

Converted amounts (≈) assume the structure as drawn. Like-named read-outs stand apart in the source and are kept apart here. Bounds are passed on as bounds.

For data set [1], the system named is HCV replicon (RNA) synthesis. In words: Quantitative analysis of HCV replicon RNA by Taqman real-time RT-PCR in Huh-5-2 cells. The conditions noted are these: for CT: Huh-5-2 cells, untreated 26.27 ± 0.34; for Delta CT: higher Delta CT = more profound inhibition of viral RNA synthesis; for EC50: Hepatitis C virus, Huh-5-2, concentration required to reduce the synthesis of HCV replicon by 50% as determined by real-time quantitative RT-PCR. The class given is cell-based, Hepatitis C virus. On the procedure: Replicon cells were plated at 7.5×10^3 cells per well in a 96-well plate plates at 37° C. and 5% CO2 in Dulbecco's modified essential medium containing 10% fetal calf serum, 1% nonessential amino acids and 1 mg/ml Geneticin. After allowing 24 h for cell attachment, different dilutions of compound were added to the cultures. Plates were incubated for 5 days, at which time RNA was extracted using the Qiamp Rneazyi Kit (Qiagen, Hilden, Germany). […] After initial activation of uracil-N-glycosylase at 50° C. for 2 minutes, RT was performed at 60° C. for 30 minutes, followed by inactivation of uracil-N-glycosylase at 95° C. for 5 minutes. Subsequent PCR amplification consisted of 40 cycles of denaturation at 94° C. for 20 seconds and annealing and extension at 62° C. for 1 minute in an ABI 7700 sequence detector. For each PCR run, negative template and positive template samples were used. The cycle threshold value (Ct-value) is defined as the number of PCR cycles for which the signal exceeds the baseline, which defines a positive value. The sample was considered to be positive if the Ct-value was <50. Results are expressed as genomic equivalents (GE).
Background: In antiviral work, replicon cells carry a viral genome segment that copies itself.

Data set [2] can be described thus: Proliferation of exponentially growing Huh-5-2 cells (MTS method). The conditions noted are these: human. The gist of the method:
(§1)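 Huh-5-2 cells carrying the luciferase HCV replicon, seeded 24 h, then exposed to serial compound dilutions without G418 for 72 h at 37° C, 5% CO2. Replication read as luciferase luminescence, expressed as percentage of untreated cultures; culture density measured in parallel by MTS.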

The test system of data set [3] is HCV replicon I389luc-ubi-neo/NS3-3'/5.1. In words: Anti-HCV replicon assay (luciferase activity) in Huh-5-2 cells. The class given is cell-based, Hepatitis C virus. As to conditions: Hepatitis C virus, concentration required to inhibit luciferase activity in the replicon system by 50%. In short, it runs like this: as §1
The mark [4] stands for this setting: CC50, concentration required to inhibit the proliferation of exponentially growing Huh-5-2 cells by 50%, Table 2.
The mark [5] stands for this setting: CC50, concentration required to inhibit the proliferation of exponentially growing Huh-5-2 cells by 50%, Table 4.

The term EC50 denotes the concentration needed to bring the measured effect to its halfway point. As usually defined, the CC50 is the concentration giving 50% cytotoxicity. Read a low CC50 as greater toxicity to the cells. As a reminder, the IC50 is the concentration needed to halve the response being measured.

For `COCCN1C(=O)c2ccccc2C(C(=O)Nc2cccc(OC)c2)C1c1cccs1` (stereo not drawn) [2-(2-methoxyethyl)-N-(3-methoxyphenyl)-1-oxo-3-(thiophen-2-yl)-1,2,3,4-tetrahydroisoquinoline-4-carboxamide], the CT is given as 28.65 in data set [1] (5 ug/ml), 29.29 in data set [1] (10 ug/ml) and 29.24 in data set [1] (20 ug/ml). The entries for the “Delta CT” value in data set [1] (5 ug/ml), in data set [1] (10 ug/ml) and in data set [1] (20 ug/ml) were 2.38, 3.02 and 2.97, respectively.
With `COc1cccc(NC(=O)C2c3ccccc3C(=O)N(CC3CCCO3)C2c2cccs2)c1` (stereo not drawn) [C31, N-(3-methoxyphenyl)-1-oxo-2-((tetrahydrofuran-2-yl)methyl)-3-(thiophen-2-yl)-1,2,3,4-tetrahydroisoquinoline-4-carboxamide], in data set [1], the EC50 was found to be 18 µg/mL (≈ 38.9 µM). The cytotoxic concentration (CC50) at 72 h was 66.5 µg/mL (≈ 144 µM) in data set [2] (setting [4]) and more than 50 µg/mL in data set [2] (setting [5]). Half-maximal inhibition in data set [3] (Huh-5-2, 72 h) (IC50) was put at 1.1 µg/mL (≈ 2.38 µM).
The molecule `COCCN1C(=O)c2cc(C)ccc2C(C(=O)Nc2cccc(OC)c2)C1c1cccs1` (stereo not drawn) [C41, 2-(2-Methoxyethyl)-N-(3-methoxyphenyl)-7-methyl-1-oxo-3-(thiophen-2-yl)-1,2,3,4-tetrahydroisoquinoline-4-carboxamide] registered an EC50 in data set [1] of 0.28 µg/mL (≈ 0.621 µM). For the same molecule, the 50% cytotoxic concentration (CC50) at 72 h was 107 µg/mL (≈ 238 µM) in data set [2] (setting [4]) and more than 50 µg/mL in data set [2] (setting [5]). The molecule further showed a 50% inhibitory concentration (IC50) in data set [3] (Huh-5-2, 72 h) of 0.5 µg/mL (≈ 1.11 µM).
Turning to `COCCN1C(=O)c2ccccc2C(C(=O)Nc2ccc(C(=O)OC)cc2)C1c1cccs1` (stereo not drawn) [C45, Methyl 4-(2-(2-methoxyethyl)-1-oxo-3-(thiophen-2-yl)-1,2,3,4-tetrahydroisoquinoline-4-carboxamido)benzoate], the EC50 in data set [1] was found to be 12 µg/mL (≈ 25.8 µM). Moreover, the IC50 in data set [3] (Huh-5-2, 72 h) turned out to be 0.1 µg/mL (≈ 0.215 µM).
Molecule `CCOC(=O)c1cccc(NC(=O)C2c3ccccc3C(=O)N(CCOC)C2c2cccs2)c1` (stereo not drawn) [C46, Ethyl 3-(2-(2-methoxyethyl)-1-oxo-3-(thiophen-2-yl)-1,2,3,4-tetrahydroisoquinoline-4-carboxamido)benzoate] displayed a half-maximal effective concentration (EC50) in data set [1] of 1.19 µg/mL (≈ 2.49 µM). The 50% cytotoxic concentration (CC50) at 72 h in data set [2] (setting [4]) is 86.3 µg/mL (≈ 180 µM); in data set [2] (setting [5]), more than 50 µg/mL. Half-maximal inhibition in data set [3] (Huh-5-2, 72 h) (IC50) required 1.4 µg/mL (≈ 2.93 µM).
In turn, `COCCN1C(=O)c2ccccc2C(C(=O)Nc2cccc(F)c2)C1c1cccs1` (stereo not drawn) [C47, N-(3-fluorophenyl)-2-(2-methoxyethyl)-1-oxo-3-(thiophen-2-yl)-1,2,3,4-tetrahydroisoquinoline-4-carboxamide] returned a 50% effective concentration (EC50) in data set [1] of 1.42 µg/mL (≈ 3.35 µM). For the same molecule, the IC50 in data set [3] (Huh-5-2, 72 h) worked out at 0.4 µg/mL (≈ 0.942 µM).
Molecule `COCCN1C(=O)c2ccccc2C(C(=O)Nc2ccc(OC)c(OC)c2)C1c1cccs1` (stereo not drawn) [C48, N-(3,4-dimethoxyphenyl)-2-(2-methoxyethyl)-1-oxo-3-(thiophen-2-yl)-1,2,3,4-tetrahydroisoquinoline-4-carboxamide] came in with an EC50 in data set [1] of 0.6 µg/mL (≈ 1.29 µM). The molecule also gave a concentration for half-maximal inhibition (IC50) in data set [3] (Huh-5-2, 72 h) of 0.3 µg/mL (≈ 0.643 µM).
As to `COCCN1C(=O)c2ccccc2C(C(=O)Nc2ccc(Cl)cc2)C1c1cccs1` (stereo not drawn) [C49, N-(4-chlorophenyl)-2-(2-methoxyethyl)-1-oxo-3-(thiophen-2-yl)-1,2,3,4-tetrahydroisoquinoline-4-carboxamide], it took 0.85 µg/mL (≈ 1.93 µM) to reach a half-maximal effect in data set [1] (EC50). For the same molecule, in data set [3] (Huh-5-2, 72 h), the concentration for half-maximal inhibition (IC50) is 0.1 µg/mL (≈ 0.227 µM).
In turn, `COCCN1C(=O)c2c(F)cccc2C(C(=O)Nc2cccc(OC)c2)C1c1cccs1` (stereo not drawn) [C51, 8-Fluoro-2-(2-methoxyethyl)-N-(3-methoxyphenyl)-1-oxo-3-(thiophen-2-yl)-1,2,3,4-tetrahydroisoquinoline-4-carboxamide] showed an EC50 in data set [1] of less than 0.4 µg/mL. The half-maximal inhibitory concentration (IC50) in data set [3] (Huh-5-2, 72 h) is 0.5 µg/mL (≈ 1.1 µM).
With `COCCN1C(=O)c2c(ccc(OC)c2F)C(C(=O)Nc2cccc(OC)c2)C1c1cccs1` (stereo not drawn) [C128, 8-fluoro-7-methoxy-2-(2-methoxyethyl)-N-(3-methoxyphenyl)-1-oxo-3-(thiophen-2-yl)-1,2,3,4-tetrahydroisoquinoline-4-carboxamide], in data set [1], the EC50 came out at 0.14 µg/mL (≈ 0.289 µM). This molecule came in with an IC50 in data set [3] (Huh-5-2, 72 h) of 0.4 µg/mL (≈ 0.826 µM).
For the molecule `COCCN1C(=O)c2ccccc2C(C(=O)Nc2cc(C(C)(C)C)on2)C1c1cccs1` (stereo not drawn) [C142, N-(5-tert-butylisoxazol-3-yl)-2-(2-methoxyethyl)-1-oxo-3-(thiophen-2-yl)-1,2,3,4-tetrahydroisoquinoline-4-carboxamide], in data set [1], a half-maximal response (EC50) required 0.22 µg/mL (≈ 0.485 µM). This molecule also had an IC50 in data set [3] (Huh-5-2, 72 h) of 0.04 µg/mL (≈ 0.0882 µM).
The matching figures for `COCCN1C(=O)c2ccccc2C(C(=O)Nc2ccc(-n3cccc3)cc2)C1c1ccc(Cl)s1` (stereo not drawn) [C153, N-(4-(1H-pyrrol-1-yl)phenyl)-3-(5-chlorothiophen-2-yl)-2-(2-methoxyethyl)-1-oxo-1,2,3,4-tetrahydroisoquinoline-4-carboxamide]: 1.12 µg/mL (≈ 2.21 µM) and 0.104 µg/mL (≈ 0.206 µM).
With `COCCN1C(=O)c2ccccc2C(C(=O)Nc2ccc(-c3csc(C)n3)cc2)C1c1cccs1` (stereo not drawn) [C157, 2-(2-methoxyethyl)-N-(4-(2-methylthiazol-4-yl)phenyl)-1-oxo-3-(thiophen-2-yl)-1,2,3,4-tetrahydroisoquinoline-4-carboxamide], in data set [1], the concentration for a half-maximal effect (EC50) was determined as 0.036 µg/mL (≈ 0.0715 µM). For the same molecule, the concentration for half-maximal inhibition (IC50) in data set [3] (Huh-5-2, 72 h) stood at 0.04 µg/mL (≈ 0.0794 µM).
The matching figures for `COCCN1C(=O)c2ccccc2C(C(=O)Nc2ccc3nc(C)ccc3c2)C1c1cccs1` (stereo not drawn) [C168, 2-(2-methoxyethyl)-N-(2-methylquinolin-6-yl)-1-oxo-3-(thiophen-2-yl)-1,2,3,4-tetrahydroisoquinoline-4-carboxamide]: 0.048 µg/mL (≈ 0.102 µM) and 0.037 µg/mL (≈ 0.0785 µM).
Take `COCCN1C(=O)c2ccccc2C(C(=O)Nc2ccc(-c3ncccn3)cc2)C1c1cccs1` (stereo not drawn) [C175, 2-(2-methoxyethyl)-1-oxo-N-(4-(pyrimidin-2-yl)phenyl)-3-(thiophen-2-yl)-1,2,3,4-tetrahydroisoquinoline-4-carboxamide]: in data set [1], the 50% effective concentration (EC50) is 0.046 µg/mL (≈ 0.0949 µM). Also, in data set [3] (Huh-5-2, 72 h), the half-maximal inhibitory concentration (IC50) stood at 0.057 µg/mL (≈ 0.118 µM).
Regarding `COCCN1C(=O)c2ccccc2C(C(=O)Nc2ccc(-c3cnco3)cc2)C1c1cccs1` (stereo not drawn) [C178, 2-(2-methoxyethyl)-N-(4-(oxazol-5-yl)phenyl)-1-oxo-3-(thiophen-2-yl)-1,2,3,4-tetrahydroisoquinoline-4-carboxamide], a half-maximal effect in data set [1] (EC50) was put at 0.036 µg/mL (≈ 0.076 µM). The IC50 in data set [3] (Huh-5-2, 72 h) stood at 0.035 µg/mL (≈ 0.0739 µM).
In data set [1], `COCCN1C(=O)c2ccccc2C(C(=O)Nc2ccc(-c3noc(C)n3)cc2)C1c1cccs1` (stereo not drawn) [C187, 2-(2-methoxyethyl)-N-(4-(5-methyl-1,2,4-oxadiazol-3-yl)phenyl)-1-oxo-3-(thiophen-2-yl)-1,2,3,4-tetrahydroisoquinoline-4-carboxamide] returned an EC50 of less than 0.016 µg/mL. This molecule came in with an IC50 in data set [3] (Huh-5-2, 72 h) of 0.01 µg/mL (≈ 0.0205 µM).
Regarding `COCCN1C(=O)c2ccccc2C(C(=O)Nc2ccc(Oc3cncc(C)n3)cc2)C1c1cccs1` (stereo not drawn) [C191, 2-(2-methoxyethyl)-N-(4-(6-methylpyrazin-2-yloxy)phenyl)-1-oxo-3-(thiophen-2-yl)-1,2,3,4-tetrahydroisoquinoline-4-carboxamide], the concentration for a half-maximal effect (EC50) in data set [1] was 0.013 µg/mL (≈ 0.0253 µM). In data set [3] (Huh-5-2, 72 h), this molecule returned an IC50 of 0.013 µg/mL (≈ 0.0253 µM).
In data set [2] (setting [4]), `COCCN1C(=O)c2ccccc2C(C(=O)Nc2ccc(OC3CCOCC3)cc2)C1c1cccs1` (stereo not drawn) [C218, 2-(2-methoxyethyl)-1-oxo-N-(4-(tetrahydro-2H-pyran-4-yloxy)phenyl)-3-(thiophen-2-yl)-1,2,3,4-tetrahydroisoquinoline-4-carboxamide] came in with a CC50 at 72 h of 83.8 µg/mL (≈ 165 µM). In data set [3] (Huh-5-2, 72 h), this molecule registered an IC50 of 0.1 µg/mL (≈ 0.197 µM).
The molecule `COCCN1C(=O)c2ccccc2C(C(=O)Nc2ccc3ncoc3c2)C1c1cccs1` (stereo not drawn) [C219, N-(benzo[d]oxazol-6-yl)-2-(2-methoxyethyl)-1-oxo-3-(thiophen-2-yl)-1,2,3,4-tetrahydroisoquinoline-4-carboxamide] displayed a CC50 at 72 h in data set [2] (setting [4]) of 91.1 µg/mL (≈ 204 µM). In addition, the 50% inhibitory concentration (IC50) in data set [3] (Huh-5-2, 72 h) came to 1.14 µg/mL (≈ 2.55 µM).
Consider `COCCN1C(=O)c2ccccc2C(C(=O)Nc2ccc(C#N)c(C(F)(F)F)c2)C1c1cccs1` (stereo not drawn) [C221, N-(4-cyano-3-(trifluoromethyl)phenyl)-2-(2-methoxyethyl)-1-oxo-3-(thiophen-2-yl)-1,2,3,4-tetrahydroisoquinoline-4-carboxamide], for which the CC50 at 72 h in data set [2] (setting [4]) was 3.52 µg/mL (≈ 7.05 µM). The molecule also had an IC50 in data set [3] (Huh-5-2, 72 h) of 0.36 µg/mL (≈ 0.721 µM).
On to `COCCN1C(=O)c2ccccc2C(C(=O)Nc2nc3ccc(OC)cc3s2)C1c1ccc(F)cc1` (stereo not drawn) [C273, 3-(4-fluorophenyl)-N-(6-methoxybenzo[d]thiazol-2-yl)-2-(2-methoxyethyl)-1-oxo-1,2,3,4-tetrahydroisoquinoline-4-carboxamide], for which, in data set [2] (Huh-5-2 cells (Huh-5 cell line with persistent HCV replicon)), the CC50 at 72 h was 14.9 µg/mL (≈ 29.5 µM). For the same molecule, in data set [3] (72 hours, read-out: IC50), the IC50 is 1.4 µg/mL (≈ 2.77 µM).
